The source made the active and inactive calls. The rule behind the calls is not given here.
System: Mus musculus
Assay: Antiinflammatory activity in BALB/c mouse model of LPS induced sepsis assessed as inhibition of IFN-beta production at 1.25 to 5 mg/kg, IG administered once a day for 3 days followed by LPS stimulation for 12 hrs starting from 2 hrs post last dose by qRT-PCR analysis
Assay type: functional, organism-based
Conditions: dose 1.25-5 mg/kg, time 86.0 hrs

## C=CCONC(=O)CCSSCCC(=O)O[C@@H]1CC[C@@]2(C)[C@@H](CC[C@@]3(C)[C@H]2[C@H](O)C[C@H]2/C(=C(\CCC=C(C)C)C(=O)OCc4ccccc4)[C@@H](OC(C)=O)C[C@@]23C)[C@@H]1C
  inhibition: Active
